ChEMBL document CHEMBL5532646, “Discovery of 4-(N-dithiobenzyl piperazine)-1,8-naphthalimide as a potent multi-target antitumor agent with good efficacy, limited toxicity, and low resistance” (Eur J Med Chem, 2024)
Active and inactive are the calls of the source. No cut-off for these calls is given here.

Experiments:
[1] = system: MGC-803; test: Antiproliferative activity against human MGC-803 cells incubated for 48 hrs by MTT assay; format: functional, cell-based; details: MGC-803, 48 h
[2] = system: HepG2; test: Antiproliferative activity against human HepG2 cells incubated for 48 hrs by MTT assay; format: functional, cell-based; details: HepG2, 48 h
[3] = system: SK-OV-3; test: Antiproliferative activity against human SK-OV-3 cells incubated for 48 hrs by MTT assay; format: functional, cell-based; details: SK-OV-3, 48 h
[4] = system: T-24; test: Antiproliferative activity against human T24 cells incubated for 48 hrs by MTT assay; format: functional, cell-based; details: T-24, 48 h
[5] = system: A549; test: Antiproliferative activity against human A549 cells incubated for 48 hrs by MTT assay; format: functional, cell-based
[6] = system: A549/CDDP; test: Antiproliferative activity against human A549/DDP cells incubated for 48 hrs by MTT assay; format: functional, cell-based
[7] = system: T-24; test: Antiproliferative activity against human T24 cells xenografted in nude mouse model assessed as tumor inhibition rate at 5 mg/kg, ip administered once every two days for 21 days relative to control; format: functional; details: T-24, 504 h, time 21 day
[8] = system: T-24; test: Antiproliferative activity against human T24 cells xenografted in nude mouse model assessed as tumor inhibition rate at 15 mg/kg, ip administered once every two days for 21 days relative to control; format: functional; details: T-24, 504 h, time 21 day
[9] = Toxicity in nude mouse model xenografted with human T24 cells assessed as pathological change in heart at 5 to 15 mg/kg, ip administered once every two days for 21 days; format: organism-based, T-24; details: in vivo, 504 h, dose 5-15 mg/kg, time 21 day
[10] = Toxicity in nude mouse model xenografted with human T24 cells assessed as pathological change in liver at 5 to 15 mg/kg, ip administered once every two days for 21 days; format: organism-based, T-24; details: in vivo, 504 h, dose 5-15 mg/kg, time 21 day
[11] = Toxicity in nude mouse model xenografted with human T24 cells assessed as pathological change in spleen at 5 to 15 mg/kg, ip administered once every two days for 21 days; format: organism-based, T-24; details: in vivo, 504 h, dose 5-15 mg/kg, time 21 day
[12] = Toxicity in nude mouse model xenografted with human T24 cells assessed as pathological change in lung at 5 to 15 mg/kg, ip administered once every two days for 21 days; format: organism-based, T-24; details: in vivo, 504 h, dose 5-15 mg/kg, time 21 day
[13] = system: HepG2; test: Antiproliferative activity against human HepG2 cells xenografted in nude mouse model assessed as tumor inhibition rate at 5 mg/kg, ip administered once every two days for 21 days relative to control; format: functional; details: HepG2, 504 h, time 21 day
[14] = system: HepG2; test: Antiproliferative activity against human HepG2 cells xenografted in nude mouse model assessed as tumor inhibition rate at 15 mg/kg, ip administered once every two days for 21 days relative to control; format: functional; details: HepG2, 504 h, time 21 day
[15] = Toxicity in nude mouse model xenografted with human HepG2 cells assessed as pathological change in heart at 5 to 15 mg/kg, ip administered once every two days for 21 days; format: organism-based; details: in vivo, 504 h, dose 5-15 mg/kg, time 21 day
[16] = Toxicity in nude mouse model xenografted with human HepG2 cells assessed as pathological change in liver at 5 to 15 mg/kg, ip administered once every two days for 21 days; format: organism-based; details: in vivo, 504 h, dose 5-15 mg/kg, time 21 day
[17] = Toxicity in nude mouse model xenografted with human HepG2 cells assessed as pathological change in spleen at 5 to 15 mg/kg, ip administered once every two days for 21 days; format: organism-based; details: in vivo, 504 h, dose 5-15 mg/kg, time 21 day
[18] = Toxicity in nude mouse model xenografted with human HepG2 cells assessed as pathological change in lung at 5 to 15 mg/kg, ip administered once every two days for 21 days; format: organism-based; details: in vivo, 504 h, dose 5-15 mg/kg, time 21 day
[19] = system: SK-OV-3; test: Antiproliferative activity against human SK-OV-3 cells xenografted in nude mouse model assessed as tumor inhibition rate at 15 mg/kg, ip administered once every two days for 21 days relative to control; format: functional; details: SK-OV-3, 504 h, time 21 day
[20] = system: SK-OV-3; test: Antiproliferative activity against human SK-OV-3 cells xenografted in nude mouse model assessed as tumor inhibition rate administered intraperitoneally once every two days for 21 days; format: functional, cell-based; details: dose 15.0 mg/kg, route ip, time 21.0 day
[21] = Toxicity in nude mouse model xenografted with human SK-OV-3 cells assessed as pathological change in heart at 15 mg/kg, ip administered once every two days for 21 days; format: organism-based; details: in vivo, 504 h, time 21 day
[22] = Toxicity in nude mouse model xenografted with human SK-OV-3 cells assessed as pathological change in liver at 15 mg/kg, ip administered once every two days for 21 days; format: organism-based; details: in vivo, 504 h, time 21 day
[23] = Toxicity in nude mouse model xenografted with human SK-OV-3 cells assessed as pathological change in spleen at 15 mg/kg, ip administered once every two days for 21 days; format: organism-based; details: in vivo, 504 h, time 21 day
[24] = Toxicity in nude mouse model xenografted with human SK-OV-3 cells assessed as pathological change in lung at 15 mg/kg, ip administered once every two days for 21 days; format: organism-based; details: in vivo, 504 h, time 21 day

IC50 [1]: 3040 nM | IC50 [2]: 1540 nM | IC50 [3]: 1070 nM
SMILES: CNCCCN1C(=O)c2cccc3c(N4CCN(C(=S)SCc5ccccc5)CC4)ccc(c23)C1=O
IC50 [4]: 590 nM | Activity [5]: Active | Activity [6]: Active | inhibition in vivo at 5 mg/kg [7]: 55.1% | inhibition in vivo at 15 mg/kg [8]: 57.1% | Activity [9]: Non-Toxic | Activity [10]: Non-Toxic | Activity [11]: Non-Toxic | Activity [12]: Non-Toxic | inhibition in vivo at 5 mg/kg [13]: 53% | inhibition in vivo at 15 mg/kg [14]: 58.8% | Activity [15]: Non-Toxic | Activity [16]: Non-Toxic | Activity [17]: Non-Toxic | Activity [18]: Non-Toxic | inhibition in vivo at 15 mg/kg [19]: 53.1% | inhibition [20]: Dose-Dependent Effect | Activity [21]: Non-Toxic | Activity [22]: Non-Toxic | Activity [23]: Non-Toxic | Activity [24]: Non-Toxic
